Peptide text beside a SMILES is read from it.
How the values were obtained:
GC-C receptor = molecular target: T1, GC-C receptor (Homo sapiens, UniProt P25092); assay: GC-C receptor T-84 cell assay (toxicity, cGMP levels) of culture filtrates; assay type: cell-based; conditions: culture filtrate; for Toxicity: relative to native STh, ^2 = no detectable toxicity, set to detection limit 0.0014; for toxicity relative to native STh: T84 cell assay
T1 construct: endogenous in cells; host or cells: T-84 cells
Procedure: T-84 cells were seeded and cultured in each well of a 24 well plate. After removing the Dulbecco's modified Eagle's medium (DMEM:F12 (1:1) Lonza Walkersville, Inc.), cells were washed 3 times with 0.5 mL DMEM. Cells were incubated with 0.25 mL DMEM containing 1 mM 3-isobutyl-1-methylxanthine (IBMX) for 10 min at 37° C. 0.1 mL of sample (culture filtrate) was added to each well and incubated for 60 min at 37° C. Following incubation, the reaction medium was aspirated, and the cells were lysed with […] HCl at room temperature for 20 min. The lysates were centrifuged at top speed for 10 min and the cGMP levels were measured in control- and agonist-stimulated cells with a direct cGMP enzyme immunoassay kit (Enzo Life Sciences, Inc.) according to the manufacturer's instructions.
The culture filtrate of each mutant was added to the T-84 cells in duplicate, and a serial dilution of culture filtrates with recombinantly expressed native ST was used to generate a standard curve.
Toxicity measured in culture filtrates is a product of intrinsic toxicity (toxicity per mol) and the concentration of the ST mutant. The same is true for antigenicity. […] Since we have no method for accurately measuring ST (mutant) concentrations in culture filtrates, we are not able to directly measure intrinsic toxicities and antigenicities for the ST mutants.
To circumvent this problem we measure toxicity and antigenicity for the ST mutants relative to native ST. This allows us to describe changes in toxicity and antigenicity in mutant culture filtrates. Next, we divide the change in antigenicity by the change in toxicity for each mutant. If the same culture filtrate has been used to measure toxicity and antigenicity this allows us to eliminate the of the concentration.

anti-STh mAb ST:G8 = assay: Competitive ELISA with anti-STh antibodies (polyclonal, mAb ST:G8); assay type: binding; conditions: polyclonal and monoclonal (ST:G8) anti-STh antibodies
Procedure: Competitive STh ELISA was performed as previously described (PMID: 6520401; Lockwood and Robertson, J Immunol Methods. 1984 Dec. 31; 75(2):295-307) with minor modifications. A U-shaped microtiter plate (Linbro, Fisher Scientific, Göteborg, Sweden) was coated with STh-ovalbumin conjugate diluted in ELISA buffer (NaCl 128 mM, KCl 2.68 mM, KH2PO4 1.47 mM, Na2HPO4 8.10 mM; pH 7.0-7.2). The plate was covered with plate sealer and incubated overnight at 37° C. Contents of the wells were discarded by inversion. Additional protein binding sites were blocked by incubating with ovalbumin 1% (w/v) (Sigma-Aldrich) diluted in ELISA buffer. After incubation for 1 h at 37° C., wells were emptied and washed three times with wash buffer (ELISA buffer containing ovalbumin 0.05% (w/v) and Tween-20 0.05% (v/v)). 75 μL of samples containing STh and 75 μL of diluted antisera (Protein-A purified rabbit anti-STa kindly supplied by John D. Clements; Department of Microbiology and Immunology, Tulane University, New Orleans, USA) were added. Both dilutions were done in ELISA buffer containing ovalbumin 0.05% (w/v). Appropriate dilutions and concentrations of reagents were determined by checkerboard titrations. The plate was incubated for 2 h at 37° C., in a rotary incubator shaker (Infors HT, Bottmingen/Basel Switzerland) at 180 rpm. Wells were emptied and washed three times with wash buffer. 100 μL of anti-Rabbit IgG Alkaline Phosphatase Conjugate developed in goat (Sigma-Aldrich) diluted 1:400 in ELISA buffer with ovalbumin 0.05% (w/v) were add and incubated with not shaking for 1 h at 37° C. Wells were emptied and washed three times with wash buffer followed by addition of 100 μL of 4-Nitrophenyl phosphate disodium salt hexahydrate at 1 mg/mL in diethanolamine buffer (diethanolamine 9.7% (v/v), MgCl2×6H2O 0.49 mM; pH 9.8). After incubation for 30 min, the reaction was stopped with 50 μL 2N NaOH (VWR international) in each well. The absorbance was read in an automatic plate reader at 405 nm (FLUOstar OPTIMA; BMG Labtech, Germany). All samples were measured in triplicate.
The anti-STh mAb ST:G8 was kindly supplied by S. Visweswariah [Garrett & Visweswariah; PMID: 8950201]. The anti-STp mAbs clone 29, clone 30, and clone 31 were obtained from Fitzgerald Industries International.
ELISA-plates (Nunc Amino Immobilizer) were coated with STh-OvA conjugate in PBS, volume 100 μl per well (synthetic STh conjugated to OvA: For ST:G8 0.04 μl/well, for clone 29 and clone 30 0.01 μl/well). Plates were incubated overnight at 4 C. Subsequently, plates were emptied and blocked with PBS-T 1% OvA for 1h at 20° C. with shaking 180 rpm. […] Developing was stopped by adding 50 μl NaOH 2M to each well, and OD was read at 405 nm with a Fluostar Optima plate reader.

T1 sequence (P25092 24-1073): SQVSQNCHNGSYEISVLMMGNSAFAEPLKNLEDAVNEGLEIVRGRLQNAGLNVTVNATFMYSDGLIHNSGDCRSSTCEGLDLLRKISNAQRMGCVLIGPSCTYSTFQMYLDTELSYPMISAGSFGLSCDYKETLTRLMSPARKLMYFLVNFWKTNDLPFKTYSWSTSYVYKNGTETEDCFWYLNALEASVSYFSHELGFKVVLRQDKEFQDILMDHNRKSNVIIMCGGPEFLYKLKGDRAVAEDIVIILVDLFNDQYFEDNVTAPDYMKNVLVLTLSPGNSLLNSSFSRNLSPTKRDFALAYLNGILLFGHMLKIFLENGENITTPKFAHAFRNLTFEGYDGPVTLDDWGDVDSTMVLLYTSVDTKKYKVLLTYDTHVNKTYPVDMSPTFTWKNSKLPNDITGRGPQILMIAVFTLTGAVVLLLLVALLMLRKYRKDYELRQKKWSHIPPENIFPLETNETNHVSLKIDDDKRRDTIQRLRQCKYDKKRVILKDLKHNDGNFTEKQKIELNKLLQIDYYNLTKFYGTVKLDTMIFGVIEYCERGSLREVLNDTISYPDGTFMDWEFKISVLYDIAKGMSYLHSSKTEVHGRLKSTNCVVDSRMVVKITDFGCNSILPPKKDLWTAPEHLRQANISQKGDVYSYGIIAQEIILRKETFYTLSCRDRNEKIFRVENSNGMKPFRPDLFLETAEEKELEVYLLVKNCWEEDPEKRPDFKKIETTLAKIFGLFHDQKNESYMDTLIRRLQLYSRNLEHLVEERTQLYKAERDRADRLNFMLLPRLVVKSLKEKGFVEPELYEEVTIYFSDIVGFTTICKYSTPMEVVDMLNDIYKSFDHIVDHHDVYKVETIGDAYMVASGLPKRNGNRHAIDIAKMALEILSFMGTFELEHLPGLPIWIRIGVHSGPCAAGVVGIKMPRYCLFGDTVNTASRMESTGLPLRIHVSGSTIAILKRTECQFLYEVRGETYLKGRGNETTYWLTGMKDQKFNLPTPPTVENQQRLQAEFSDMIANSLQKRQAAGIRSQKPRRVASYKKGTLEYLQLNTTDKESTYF

Compound	Toxicity (GC-C receptor)	binding by anti-STh antibodies (anti-STh mAb ST:G8)	further results
CC(C)C[C@@H]1NC(=O)[C@H](CCC(=O)O)NC(=O)[C@@H]2CSSC[C@@H]3NC(=O)[C@H](C)NC(=O)[C@@H]4CCCN4C(=O)[C@H](CCCCN)NC(=O)[C@H](CSSC[C@H](NC(=O)[C@H](Cc4ccc(O)cc4)NC(=O)[C@H](CC(N)=O)NC(=O)[C@H](CO)NC(=O)[C@H](CO)NC(=O)[C@@H](N)CC(N)=O)C(=O)N2)NC(=O)[C@H](CSSC[C@@H](C(=O)N[C@@H](Cc2ccc(O)cc2)C(=O)O)NC(=O)CNC(=O)[C@H]([C@@H](C)O)NC3=O)NC1=O [Mutant N12K] (HELM PEPTIDE1{N.S.S.N.Y.C.C.E.L.C.C.K.P.A.C.T.G.C.Y}$PEPTIDE1,PEPTIDE1,6:R3-11:R3|PEPTIDE1,PEPTIDE1,7:R3-15:R3|PEPTIDE1,PEPTIDE1,10:R3-18:R3$$$V2.0)	0.5113	–	–
CC(C)C[C@@H]1NC(=O)[C@H](CCC(=O)O)NC(=O)[C@@H]2CSSC[C@@H]3NC(=O)[C@H](C)NC(=O)[C@@H]4CCCN4C(=O)[C@H]([C@@H](C)O)NC(=O)[C@H](CSSC[C@H](NC(=O)[C@H](Cc4ccc(O)cc4)NC(=O)[C@H](CC(N)=O)NC(=O)[C@H](CO)NC(=O)[C@H](CO)NC(=O)[C@@H](N)CC(N)=O)C(=O)N2)NC(=O)[C@H](CSSC[C@@H](C(=O)N[C@@H](Cc2ccc(O)cc2)C(=O)O)NC(=O)CNC(=O)[C@H]([C@@H](C)O)NC3=O)NC1=O [Mutant N12T] (HELM PEPTIDE1{N.S.S.N.Y.C.C.E.L.C.C.T.P.A.C.T.G.C.Y}$PEPTIDE1,PEPTIDE1,6:R3-11:R3|PEPTIDE1,PEPTIDE1,7:R3-15:R3|PEPTIDE1,PEPTIDE1,10:R3-18:R3$$$V2.0)	–	–	toxicity relative to native STh (GC-C receptor): 0.03
CC(C)C[C@@H]1NC(=O)[C@H](CCC(=O)O)NC(=O)[C@@H]2CSSC[C@@H]3NC(=O)[C@H](C)NC(=O)[C@@H]4CCCN4C(=O)[C@H](C(C)C)NC(=O)[C@H](CSSC[C@H](NC(=O)[C@H](Cc4ccc(O)cc4)NC(=O)[C@H](CC(N)=O)NC(=O)[C@H](CO)NC(=O)[C@H](CO)NC(=O)[C@@H](N)CC(N)=O)C(=O)N2)NC(=O)[C@H](CSSC[C@@H](C(=O)N[C@@H](Cc2ccc(O)cc2)C(=O)O)NC(=O)CNC(=O)[C@H]([C@@H](C)O)NC3=O)NC1=O [Mutant N12V] (HELM PEPTIDE1{N.S.S.N.Y.C.C.E.L.C.C.V.P.A.C.T.G.C.Y}$PEPTIDE1,PEPTIDE1,6:R3-11:R3|PEPTIDE1,PEPTIDE1,7:R3-15:R3|PEPTIDE1,PEPTIDE1,10:R3-18:R3$$$V2.0)	–	–	toxicity relative to native STh (GC-C receptor): 0.01
CC(C)C[C@@H]1NC(=O)[C@H](CCC(=O)O)NC(=O)[C@@H]2CSSC[C@@H]3NC(=O)[C@H](C)NC(=O)[C@H](C)NC(=O)[C@H](CC(N)=O)NC(=O)[C@H](CSSC[C@H](NC(=O)[C@H](Cc4ccc(O)cc4)NC(=O)[C@H](CC(N)=O)NC(=O)[C@H](CO)NC(=O)[C@H](CO)NC(=O)[C@@H](N)CC(N)=O)C(=O)N2)NC(=O)[C@H](CSSC[C@@H](C(=O)N[C@@H](Cc2ccc(O)cc2)C(=O)O)NC(=O)CNC(=O)[C@H]([C@@H](C)O)NC3=O)NC1=O [Mutant P13A] (HELM PEPTIDE1{N.S.S.N.Y.C.C.E.L.C.C.N.A.A.C.T.G.C.Y}$PEPTIDE1,PEPTIDE1,6:R3-11:R3|PEPTIDE1,PEPTIDE1,7:R3-15:R3|PEPTIDE1,PEPTIDE1,10:R3-18:R3$$$V2.0)	< 0.0014^2	–	–
CC(C)C[C@@H]1NC(=O)[C@H](CCC(=O)O)NC(=O)[C@@H]2CSSC[C@@H]3NC(=O)[C@H](C)NC(=O)[C@@H]4CCCN4C(=O)[C@H](CC(N)=O)NC(=O)[C@H](CSSC[C@H](NC(=O)[C@H](Cc4ccc(O)cc4)NC(=O)[C@H](CC(N)=O)NC(=O)[C@H](CO)NC(=O)[C@H](CC(N)=O)NC(=O)[C@@H](N)CC(N)=O)C(=O)N2)NC(=O)[C@H](CSSC[C@@H](C(=O)N[C@@H](Cc2ccc(O)cc2)C(=O)O)NC(=O)CNC(=O)[C@H]([C@@H](C)O)NC3=O)NC1=O [Mutant S02N] (HELM PEPTIDE1{N.N.S.N.Y.C.C.E.L.C.C.N.P.A.C.T.G.C.Y}$PEPTIDE1,PEPTIDE1,6:R3-11:R3|PEPTIDE1,PEPTIDE1,7:R3-15:R3|PEPTIDE1,PEPTIDE1,10:R3-18:R3$$$V2.0)	0.7308	–	–
CC(C)C[C@@H]1NC(=O)[C@H](CCC(=O)O)NC(=O)[C@@H]2CSSC[C@@H]3NC(=O)[C@H](C)NC(=O)[C@@H]4CCCN4C(=O)[C@H](CC(N)=O)NC(=O)[C@H](CSSC[C@H](NC(=O)[C@H](Cc4ccc(O)cc4)NC(=O)[C@H](CC(N)=O)NC(=O)[C@H](Cc4ccccc4)NC(=O)[C@H](CO)NC(=O)[C@@H](N)CC(N)=O)C(=O)N2)NC(=O)[C@H](CSSC[C@@H](C(=O)N[C@@H](Cc2ccc(O)cc2)C(=O)O)NC(=O)CNC(=O)[C@H]([C@@H](C)O)NC3=O)NC1=O [Mutant S03F] (HELM PEPTIDE1{N.S.F.N.Y.C.C.E.L.C.C.N.P.A.C.T.G.C.Y}$PEPTIDE1,PEPTIDE1,6:R3-11:R3|PEPTIDE1,PEPTIDE1,7:R3-15:R3|PEPTIDE1,PEPTIDE1,10:R3-18:R3$$$V2.0)	0.3871	–	–
CC(C)C[C@@H]1NC(=O)[C@H](CCC(=O)O)NC(=O)[C@@H]2CSSC[C@@H]3NC(=O)[C@H](C)NC(=O)[C@@H]4CCCN4C(=O)[C@H](CC(N)=O)NC(=O)[C@H](CSSC[C@H](NC(=O)[C@H](Cc4ccc(O)cc4)NC(=O)[C@H](CC(N)=O)NC(=O)[C@H](CO)NC(=O)[C@H](CO)NC(=O)[C@@H](N)CC(N)=O)C(=O)N2)NC(=O)[C@H](CSSC[C@@H](C(=O)N[C@@H](Cc2ccc(O)cc2)C(=O)O)NC(=O)CNC(=O)[C@H](CCCNC(=N)N)NC3=O)NC1=O [Mutant T16R] (HELM PEPTIDE1{N.S.S.N.Y.C.C.E.L.C.C.N.P.A.C.R.G.C.Y}$PEPTIDE1,PEPTIDE1,6:R3-11:R3|PEPTIDE1,PEPTIDE1,7:R3-15:R3|PEPTIDE1,PEPTIDE1,10:R3-18:R3$$$V2.0)	0.0111	–	–
NSSNYCCELCCNPACTGCY [STh]	–	bound	–
NTFYCCELCCNPACAGCY [STp]	–	bound	–
guanylin (PGTCEICAYAACTGC) [endogenous peptide ligand of the GC-C receptor]	–	not	–
